Reference: patent publication US8501782B2, “Piperidinyl derivatives as modulators of chemokine receptor activity” (Bristol-Myers Squibb Company, priority 2007, dated 2013)

Target: T1, CCR1 (Homo sapiens, UniProt P32246)
T1 construct: THP-1 monocytic leukemia cells are combined with 100 μg of LS WGA PS beads; endogenous in cells; host or cells: THP-1 human monocytic leukemia cells
T1 sequence (P32246 1-355): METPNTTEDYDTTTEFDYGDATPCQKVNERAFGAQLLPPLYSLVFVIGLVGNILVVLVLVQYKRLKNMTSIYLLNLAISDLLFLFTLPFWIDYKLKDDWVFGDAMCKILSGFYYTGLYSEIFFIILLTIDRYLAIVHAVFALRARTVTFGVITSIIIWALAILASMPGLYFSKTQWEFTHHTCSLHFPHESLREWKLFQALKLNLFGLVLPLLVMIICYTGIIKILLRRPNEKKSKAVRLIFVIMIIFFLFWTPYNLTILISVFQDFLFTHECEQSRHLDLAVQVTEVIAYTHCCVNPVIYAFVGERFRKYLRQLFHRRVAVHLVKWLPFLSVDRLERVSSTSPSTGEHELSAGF
Assay: CCR1 ligand binding scintillation proximity assay (SPA): antagonism of MIP-1α binding to human THP-1 cells
Settings: THP-1 monocytic leukemia cells, 0.1 nM [125I]-MIP-1α, 12 h at room temperature
Description: Antagonism of MIP-1α Binding to Human THP-1 Cells
CCR1 ligand binding scintillation proximity assay (SPA) description:
For radioligand competition studies, a final concentration of 1×10^5 THP-1 monocytic leukemia cells are combined with 100 μg of LS WGA PS beads (Amersham, Cat.#: RPNQ 0260) in 40 μl of assay buffer (RPMI 1640 without phenol red, 50 mM HEPES, 5 mM MgCl2, 1 mM CaCl2, 0.1% BSA). The THP-1 cell/bead mixture is added to each well of a 384-well assay plate (PerkinElmer, Cat. #:6007899) containing test compound in 3-fold serial dilution, with final concentrations ranging from 8 μM to […]. A final concentration of 0.1 nM [^125I]-MIP-1α (PerkinElmer, Cat. #NEX298) in 20 μl assay buffer is added to the reaction. Sealed assay plates are incubated at room temperature for 12 h then analyzed by LEADseeker™.
The competition data of the test compound over a range of concentrations is plotted as percentage inhibition of radioligand specific bound in the absence of test compound (percent of total signal). After correcting for non-specific binding, IC50 values are determined. The IC50 value is defined as the concentration of test compound needed to reduce [^125I]-MIP-1α specific binding by 50% and is calculated using the four parameter logistic equation to fit the normalized data. The Ki values are determined by application of the Cheng-Prusoff equation to the IC50 values, where Ki=IC50/(1+ligand concentration/Kd) The Kd of [^125I]-MIP-1α in THP-1 cells is 0.1 nM. Each experiment is run in duplicate.

SMILES | IC50 [µM]
CC(C)(CC(=O)N1CC[C@](O)(c2ccc(Cl)cc2)C(C)(C)C1)NC(=O)C1CCCC1 [Example 35] | 0.0017
Cc1cc(C)c(C(=O)NC(C)(C)CC(=O)N2CC[C@](O)(c3ccc(Cl)cc3)C(C)(C)C2)cn1 [Example 40] | 0.0015
CC1(C)CN(C(=O)CCNC(=O)c2ccccc2)CC[C@]1(O)c1ccc(Cl)cc1 [Example 27] | 0.0416
CC(=O)N[C@@H]1CC[C@@H](C(=O)N[C@H](C)CC(=O)N2CC[C@](O)(c3ccc(Cl)cc3)C(C)(C)C2)C1 [Example 11, (1R,3R)-3-Acetamido-N—((R)-4-((S)-4-(4-chlorophenyl)-4-hydroxy-3,3-dimethylpiperidin-1-yl)-4-oxobutan-2-yl)cyclopentanecarboxamide] | 0.0439
C[C@H](CC(=O)N1CC[C@](O)(c2ccc(Cl)cc2)C(C)(C)C1)NC(=O)[C@@H]1CC[C@@H](NC(=O)OC(C)(C)C)C1 [Example 28] | 0.0467
CC(C)(CC(=O)N1CC[C@](O)(c2ccc(Cl)cc2)C(C)(C)C1)NC(=O)c1cccc(C(N)=O)c1 [Example 42] | 0.0018
CC(CNC(=O)C1CCCC1)C(=O)N1CC[C@](O)(c2ccc(Cl)cc2)C(C)(C)C1 (stereo partly drawn) [Example 21] | 0.042
CC1(C)CN(C(=O)CC2(NC(=O)c3ccccc3)CCOCC2)CC[C@]1(O)c1ccc(Cl)cc1 [Example 15, (S)—N-(4-(2-(4-(4-Chlorophenyl)-4-hydroxy-3,3-dimethylpiperidin-1-yl)-2-oxoethyl)tetrahydro-2H-pyran-4-yl)benzamide] | 1.18
CC(C)(CC(=O)N1CCC(O)(c2ccc(C#N)cc2)C(C)(C)C1)NC(=O)c1ccccc1 (stereo not drawn) [Example 60] | 0.0453
CC(C)(CC(=O)N1CC[C@](O)(c2ccc(Cl)cc2)C(C)(C)C1)NC(=O)c1cccc(-n2cnnn2)c1 [Example 50] | 0.0022

The remaining lines, values ahead:

IC50 [µM] | SMILES
0.788 | CC(C)(CC(=O)N1CCC(O)(c2ncc(Cl)cc2Cl)C(C)(C)C1)NC(=O)c1ccccc1 (stereo not drawn) [Example 83]
0.0019 | C[C@H](NC(=O)NC(C)(C)CC(=O)N1CC[C@](O)(c2ccc(Cl)cc2)C(C)(C)C1)C(C)(C)O [Example 63, 1-(4-((S)-4-(4-Chlorophenyl)-4-hydroxy-3,3-dimethylpiperidin-1-yl)-2-methyl-4-oxobutan-2-yl)-3-((S)-3-hydroxy-3-methylbutan-2-yl)urea]
1.19 | CC(NC(=O)c1ccccc1)C(C)C(=O)N1CC[C@](O)(c2ccc(Cl)cc2)C(C)(C)C1 (single isomer, unassigned) [Example 72a]
0.991 | CCOC(=O)c1cc(C2(O)CCN(C(=O)CC(C)(C)NC(=O)c3ccccc3)CC2(C)C)ccc1Cl (stereo not drawn) [Example 78]
0.809 | CC(C)[C@@H](CNC(=O)Cc1ccccc1)C(=O)N1CC[C@](O)(c2ccc(Cl)cc2)C(C)(C)C1 [Example 89]
